Experimental data reported in patent US20070128217A1 (priority 2003, published 2007).

Key:
[1] = test system: recombinant human anti-SARS-CoV antibody 03-018; format: binding; design: Binding of antibody 03-018 to linear peptides of the N protein of SARS-CoV Urbani / Binding of antibody 03-018 to looped/cyclic peptides of the N protein of SARS-CoV Urbani: unit not given here
[2] = test system: antibodies in sera from SARS patients (sera 1a, 1b, 2, 6, 37, 62, London, SARS-yellow, SARS-green); format: binding, human; design: Binding of serum 6 to linear peptides of protein X1 of SARS-CoV Urbani / Binding of serum 37 to linear peptides of protein X1 of SARS-CoV Urbani / Binding of serum 6 to looped/cyclic peptide (PEPSCAN-ELISA) / Binding of serum 37 to looped/cyclic peptide (PEPSCAN-ELISA) / Binding of serum 37 to looped/cyclic peptides of protein X1 of SARS-CoV Urbani / Binding of serum 6 to linear peptides of protein X2 / Binding of serum 37 to linear peptides of protein X2 / Binding of serum 37 to looped/cyclic peptides of protein X2 of SARS-CoV Urbani / Binding of serum 6 to linear peptides of protein M of SARS-CoV Urbani / Binding of serum 37 to linear peptides of protein M of SARS-CoV Urbani / Binding of serum 6 to looped/cyclic peptides of protein M of SARS-CoV Urbani / Binding of serum 37 to looped/cyclic peptides of protein M of SARS-CoV Urbani / Binding of serum 6 to linear peptides of protein X3 of SARS-CoV Urbani / Binding of serum 37 to linear peptides of protein X3 of SARS-CoV Urbani / Binding of serum 37 to looped/cyclic peptides of protein X3 of SARS-CoV Urbani / Binding of serum 6 to linear peptides of protein X4 of SARS-CoV Urbani / Binding of serum 37 to linear peptides of protein X4 of SARS-CoV Urbani / Binding of serum 37 to looped/cyclic peptides of protein X4 of SARS-CoV Urbani / Binding of serum 6 to linear peptides of protein X5 of SARS-CoV Urbani / Binding of serum 37 to linear peptides of protein X5 of SARS-CoV Urbani / Binding of serum 37 to looped/cyclic peptides of protein X5 of SARS-CoV Urbani / Binding of serum 6 to linear peptides of protein N of SARS-CoV Urbani / Binding of serum 37 to linear peptides of protein N of SARS-CoV Urbani / Binding of serum 6 to linear peptide (PEPSCAN-ELISA) / Binding of serum 1a to looped/cyclic peptides of protein N of SARS-CoV Urbani / Binding of serum 1b to looped/cyclic peptides of protein N of SARS-CoV Urbani / Binding of serum 2 to looped/cyclic peptides of protein N of SARS-CoV Urbani / Binding of serum 6 to looped/cyclic peptides of protein N of SARS-CoV Urbani / Binding of serum 37 to looped/cyclic peptides of protein N of SARS-CoV Urbani / Binding of serum 62 to looped/cyclic peptides of protein N of SARS-CoV Urbani / Binding of serum London to looped/cyclic peptides of protein N of SARS-CoV Urbani / Binding of serum SARS-green to looped/cyclic peptides of protein N of SARS-CoV Urbani: unit not given here
[3] = test system: rabbit serum obtained by immunizing a rabbit with the SARS-CoV strain Frankfurt 1; format: binding; design: Binding of a rabbit serum to linear peptides / Binding of a rabbit serum to looped peptides / Rabbit serum linear peptides / Rabbit serum looped peptides / Binding of a rabbit serum to linear peptides of protein N of SARS-CoV Urbani (Rabbit serum linear peptides) / Binding of a rabbit serum to looped/cyclic peptides of protein N of SARS-CoV Urbani (Rabbit serum looped peptides): unit not given here
[4] = test system: control sera (pooled serum of ten healthy LUMC hospital workers; commercial negative donor pooled serum from the Dutch bloodbank); format: binding, human; design: Binding of Control serum LUMC to linear peptides / Binding of Control serum Blood-bank to linear peptides / Binding of Control serum LUMC to looped peptides / Binding of Control Serum Blood-Bank to Looped peptides / Binding of Control serum LUMC to linear peptides of the protein M of SARS-CoV Urbani / Binding of Control serum Blood-bank to linear peptides of the protein M of SARS-CoV Urbani / Binding of Control serum LUMC to looped peptides of the protein M of SARS-CoV Urbani / Binding of Control Serum Blood-Bank to Looped peptides of the protein M of SARS-CoV Urbani: unit not given here

NQNGGRNGARPKQRR
0.1: Binding of serum 1b to linear peptides of protein N of SARS-CoV Urbani [2] | Binding of serum 1b to looped/cyclic peptides of protein N of SARS-CoV Urbani [2]
0.6: Binding of serum SARS-yellow to linear peptides of protein N of SARS-CoV Urbani [2] | Binding of Control Serum Blood-Bank to Looped peptides [4]
1.1: Binding of a rabbit serum to looped/cyclic peptides of protein N of SARS-CoV Urbani (Rabbit serum looped peptides) [3]
0.8: Binding of serum 37 to linear peptides of protein N of SARS-CoV Urbani [2] | Binding of Control serum LUMC to linear peptides [4]
0.4: Binding of serum 37 to looped/cyclic peptides of protein N of SARS-CoV Urbani [2]
0.7: Binding of serum 62 to linear peptides of protein N of SARS-CoV Urbani [2] | Binding of Control serum Blood-bank to linear peptides [4]
0.5: Binding of serum London to linear peptides of protein N of SARS-CoV Urbani [2] | Binding of serum SARS-green to linear peptides of protein N of SARS-CoV Urbani [2] | Binding of a rabbit serum to linear peptides of protein N of SARS-CoV Urbani (Rabbit serum linear peptides) [3] | Binding of Control serum LUMC to looped peptides [4]
0.3: Binding of serum 2 to linear peptides of protein N of SARS-CoV Urbani [2] | Binding of serum 6 to linear peptides of protein N of SARS-CoV Urbani [2] | Binding of serum 62 to looped/cyclic peptides of protein N of SARS-CoV Urbani [2] | Binding of serum London to looped/cyclic peptides of protein N of SARS-CoV Urbani [2] | Binding of serum SARS-yellow to looped/cyclic peptides of protein N of SARS-CoV Urbani [2]
0.2: Binding of antibody 03-018 to linear peptides of the N protein of SARS-CoV Urbani [1] | Binding of antibody 03-018 to looped/cyclic peptides of the N protein of SARS-CoV Urbani [1] | Binding of serum 1a to linear peptides of protein N of SARS-CoV Urbani [2] | Binding of serum 1a to looped/cyclic peptides of protein N of SARS-CoV Urbani [2] | Binding of serum 2 to looped/cyclic peptides of protein N of SARS-CoV Urbani [2] | Binding of serum 6 to looped/cyclic peptides of protein N of SARS-CoV Urbani [2] | Binding of serum SARS-green to looped/cyclic peptides of protein N of SARS-CoV Urbani [2]

NQRSAPRITFGGPTD
0.4: Binding of serum 1a to looped/cyclic peptides of protein N of SARS-CoV Urbani [2] | Binding of serum 2 to looped/cyclic peptides of protein N of SARS-CoV Urbani [2] | Binding of serum 62 to looped/cyclic peptides of protein N of SARS-CoV Urbani [2] | Binding of serum London to looped/cyclic peptides of protein N of SARS-CoV Urbani [2] | Binding of a rabbit serum to looped/cyclic peptides of protein N of SARS-CoV Urbani (Rabbit serum looped peptides) [3]
0.2: Binding of serum 1a to linear peptides of protein N of SARS-CoV Urbani [2] | Binding of serum 6 to looped/cyclic peptides of protein N of SARS-CoV Urbani [2]
0.6: Binding of serum 37 to looped/cyclic peptides of protein N of SARS-CoV Urbani [2] | Binding of serum 62 to linear peptides of protein N of SARS-CoV Urbani [2] | Binding of Control Serum Blood-Bank to Looped peptides [4] | Binding of Control serum Blood-bank to linear peptides [4]
0.5: Binding of serum London to linear peptides of protein N of SARS-CoV Urbani [2] | Binding of serum SARS-green to looped/cyclic peptides of protein N of SARS-CoV Urbani [2] | Binding of serum SARS-yellow to linear peptides of protein N of SARS-CoV Urbani [2] | Binding of Control serum LUMC to linear peptides [4]
recognized: Recognition of the peptide by antibody 03-018 [1]
0.3: Binding of serum 1b to looped/cyclic peptides of protein N of SARS-CoV Urbani [2] | Binding of serum SARS-green to linear peptides of protein N of SARS-CoV Urbani [2] | Binding of a rabbit serum to linear peptides of protein N of SARS-CoV Urbani (Rabbit serum linear peptides) [3]
0.1: Binding of serum 1b to linear peptides of protein N of SARS-CoV Urbani [2] | Binding of serum 2 to linear peptides of protein N of SARS-CoV Urbani [2] | Binding of serum 6 to linear peptides of protein N of SARS-CoV Urbani [2]
0.7: Binding of serum 37 to linear peptides of protein N of SARS-CoV Urbani [2] | Binding of serum SARS-yellow to looped/cyclic peptides of protein N of SARS-CoV Urbani [2] | Binding of Control serum LUMC to looped peptides [4]

NSGPDDQIGYYRRAT
0.8: Binding of Control serum LUMC to looped peptides [4]
1.0: Binding of serum 37 to looped/cyclic peptides of protein N of SARS-CoV Urbani [2]
0.2: Binding of antibody 03-018 to looped/cyclic peptides of the N protein of SARS-CoV Urbani [1] | Binding of serum 1a to linear peptides of protein N of SARS-CoV Urbani [2] | Binding of serum 6 to linear peptides of protein N of SARS-CoV Urbani [2]
0.3: Binding of serum 1b to looped/cyclic peptides of protein N of SARS-CoV Urbani [2] | Binding of serum 6 to looped/cyclic peptides of protein N of SARS-CoV Urbani [2]
0.5: Binding of serum 1a to looped/cyclic peptides of protein N of SARS-CoV Urbani [2] | Binding of serum 2 to looped/cyclic peptides of protein N of SARS-CoV Urbani [2] | Binding of serum London to looped/cyclic peptides of protein N of SARS-CoV Urbani [2] | Binding of serum SARS-green to looped/cyclic peptides of protein N of SARS-CoV Urbani [2] | Binding of serum SARS-yellow to linear peptides of protein N of SARS-CoV Urbani [2] | Binding of a rabbit serum to looped/cyclic peptides of protein N of SARS-CoV Urbani (Rabbit serum looped peptides) [3]
0.7: Binding of serum 37 to linear peptides of protein N of SARS-CoV Urbani [2] | Binding of serum 62 to looped/cyclic peptides of protein N of SARS-CoV Urbani [2] | Binding of Control Serum Blood-Bank to Looped peptides [4] | Binding of Control serum Blood-bank to linear peptides [4] | Binding of Control serum LUMC to linear peptides [4]
0.6: Binding of serum 62 to linear peptides of protein N of SARS-CoV Urbani [2] | Binding of serum SARS-yellow to looped/cyclic peptides of protein N of SARS-CoV Urbani [2]
0.4: Binding of serum London to linear peptides of protein N of SARS-CoV Urbani [2]
0.1: Binding of antibody 03-018 to linear peptides of the N protein of SARS-CoV Urbani [1] | Binding of serum 1b to linear peptides of protein N of SARS-CoV Urbani [2] | Binding of serum 2 to linear peptides of protein N of SARS-CoV Urbani [2] | Binding of serum SARS-green to linear peptides of protein N of SARS-CoV Urbani [2] | Binding of a rabbit serum to linear peptides of protein N of SARS-CoV Urbani (Rabbit serum linear peptides) [3]

NTASWFTALTQHGKE
0.7: Binding of serum 37 to linear peptides of protein N of SARS-CoV Urbani [2]
0.6: Binding of Control serum LUMC to linear peptides [4]
0.2: Binding of antibody 03-018 to looped/cyclic peptides of the N protein of SARS-CoV Urbani [1] | Binding of serum 1a to linear peptides of protein N of SARS-CoV Urbani [2] | Binding of serum 1a to looped/cyclic peptides of protein N of SARS-CoV Urbani [2] | Binding of serum 1b to looped/cyclic peptides of protein N of SARS-CoV Urbani [2] | Binding of serum 2 to looped/cyclic peptides of protein N of SARS-CoV Urbani [2]
0.1: Binding of antibody 03-018 to linear peptides of the N protein of SARS-CoV Urbani [1] | Binding of serum 1b to linear peptides of protein N of SARS-CoV Urbani [2] | Binding of serum 2 to linear peptides of protein N of SARS-CoV Urbani [2] | Binding of serum 6 to linear peptides of protein N of SARS-CoV Urbani [2] | Binding of serum 6 to looped/cyclic peptides of protein N of SARS-CoV Urbani [2] | Binding of a rabbit serum to linear peptides of protein N of SARS-CoV Urbani (Rabbit serum linear peptides) [3] | Binding of a rabbit serum to looped/cyclic peptides of protein N of SARS-CoV Urbani (Rabbit serum looped peptides) [3]
0.5: Binding of serum 62 to linear peptides of protein N of SARS-CoV Urbani [2] | Binding of serum SARS-yellow to linear peptides of protein N of SARS-CoV Urbani [2] | Binding of Control Serum Blood-Bank to Looped peptides [4] | Binding of Control serum Blood-bank to linear peptides [4]
0.4: Binding of serum 37 to looped/cyclic peptides of protein N of SARS-CoV Urbani [2] | Binding of serum London to linear peptides of protein N of SARS-CoV Urbani [2] | Binding of serum SARS-green to linear peptides of protein N of SARS-CoV Urbani [2] | Binding of Control serum LUMC to looped peptides [4]
0.3: Binding of serum 62 to looped/cyclic peptides of protein N of SARS-CoV Urbani [2] | Binding of serum London to looped/cyclic peptides of protein N of SARS-CoV Urbani [2] | Binding of serum SARS-green to looped/cyclic peptides of protein N of SARS-CoV Urbani [2] | Binding of serum SARS-yellow to looped/cyclic peptides of protein N of SARS-CoV Urbani [2]
